Test system: E6/E7LOW human hepatocytes
Test: Puromycin toxicity curves, LIVE/DEAD assay
Format: cell-based
Details: 653 (female) genotype
Procedure: E6/E7LOW human hepatocytes puromycin toxicity curves: Puromycin (13884, Cayman chemical) was two-fold serially diluted from 10 μg/ml to 0.3 μg/ml in proliferation medium and applied to E6/E7LOW human hepatocytes growing in 96-well plate format. The cells were monitored and imaged daily and on the 3rd day post exposure were analyzed with a LIVE/DEAD assay (L3224, ThermoFischer). The puromycin concentration killing practically all cells in ˜3 days was defined as 2.5 μg/ml for the 653 (female) genotype and 5 µg/ml for the 422 (male) genotype cells.

COc1ccc(C[C@H](N)C(=O)N[C@H]2[C@@H](O)[C@H](n3cnc4c(N(C)C)ncnc43)O[C@@H]2CO)cc1 [Puromycin]
puromycin concentration killing practically all cells in ˜3 days: 2.5 µg/mL
